According to US6706663B2, “Herbicidal 3-heterocyclic substituted benzisothiazole and benzisoxazole compounds” (Wyeth, priority 2000, dated 2004):

Legend:
[1] = test system: ABUTH (Abutilon theophrasti); test: Postemergence herbicidal evaluation; format: in vivo, Medic.
In short: (§1)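 Seedlings grown about two weeks in flats, sprayed, then kept under standard greenhouse care. Rated visually 4–5 weeks after treatment on a 0–9 scale (stand, vigour, malformation, size, chlorosis, overall appearance) relative to untreated control; repeat tests averaged.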

[2] = test system: AMBEL (Ambrosia artemisifolia); test: Postemergence herbicidal evaluation; format: in vivo, L.
In short: as §1

[3] = test system: CASOB (Cassia obtusifolia); test: Postemergence herbicidal evaluation; format: in vivo, L.
In short: as §1

[4] = test system: CHEAL (Chenopodium album); test: Postemergence herbicidal evaluation; format: in vivo, L.
In short: as §1

[5] = test system: IPOHE (Ipomoea hederacea); test: Postemergence herbicidal evaluation; format: in vivo, (L.) Jacq.
In short: as §1

[6] = test system: ECHCG (Echinochloa crus-galli); test: Postemergence herbicidal evaluation; format: in vivo, (L.) Beau
In short: as §1

[7] = test system: ORYSAT (Rice, Tebonnet); test: Postemergence herbicidal evaluation; format: in vivo, Oryza sativa, (L.) Tebonnet
In short: as §1

[8] = test system: TRZAWR (Wheat, Winter, cv Riband); test: Postemergence herbicidal evaluation; format: in vivo, Triticum aestivum
In short: as §1

[9] = test system: ZEAMX (Corn, Field); test: Postemergence herbicidal evaluation; format: in vivo, Zea mays, L.
In short: as §1

[10] = test system: ABUTH (Abutilon theophrasti); test: Preemergence herbicidal evaluation; format: in vivo, Medic.; conditions: preemergence, rated 4-5 weeks after treatment
[11] = test system: AMBEL (Ambrosia artemisifolia); test: Preemergence herbicidal evaluation; format: in vivo, L.; conditions: preemergence, rated 4-5 weeks after treatment
In short: (§2)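 Applied before emergence as an aqueous acetone spray over seeded soil. Read-out: 0–9 visual rating covering plant stand, vigor, size, chlorosis, malformation and overall appearance compared with control, taken 4–5 weeks after spraying.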

[12] = test system: CASOB (Cassia obtusifolia); test: Preemergence herbicidal evaluation; format: in vivo, L.; conditions: preemergence, rated 4-5 weeks after treatment
In short: as §2

[13] = test system: CHEAL (Chenopodium album); test: Preemergence herbicidal evaluation; format: in vivo, L.; conditions: preemergence, rated 4-5 weeks after treatment
In short: as §2

[14] = test system: ORYSAT (Rice, Tebonnet); test: Preemergence herbicidal evaluation; format: in vivo, Oryza sativa, (L.) Tebonnet; conditions: preemergence, rated 4-5 weeks after treatment
[15] = test system: TRZAWR (Wheat, Winter, cv Riband); test: Preemergence herbicidal evaluation; format: in vivo, Triticum aestivum; conditions: preemergence, rated 4-5 weeks after treatment
In short: as §2

[16] = test system: ECHORC (Echinochloa oryzoides); test: Flooded paddy, preemergence weed control; format: in vivo, Echinochloa oryzoides (Ard.) Fritsch.; conditions: rated 3-4 weeks after treatment, 0-9 rating scale
In short: (§3)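 Greenhouse paddy test, preemergence. Seeds planted in the top 0.5 cm of silt loam soil, which remained flooded at 1.5–3 cm depth. Scored 0-9 by visual comparison with control.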

[17] = test system: CYPSE (Cyperus serotinus); test: Flooded paddy, preemergence weed control; format: in vivo, Rottb.; conditions: rate 0.1250 kg/ha, rated 3-4 weeks after treatment, 0-9 rating scale
In short: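 Herbicidal effect was scored visually on a 0–9 scale against an untreated control 3–4 weeks after treatment. Compounds were applied preemergence as 50/50 v/v aqueous/acetone mixtures into flood water (1.5–3 cm deep over silt loam), at roughly 0.0080 to 0.1250 kg/ha active ingredient.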

[18] = test system: SAGPY (Sagittaria pygmaea); test: Flooded paddy, preemergence weed control; format: in vivo, L.; conditions: rated 3-4 weeks after treatment, 0-9 rating scale
In short: as §3

[19] = test system: ORYSAT (Rice, Tebonnet); test: Flooded paddy, post-transplant rice tolerance; format: in vivo, Oryza sativa, (L.) Tebonnet; conditions: flooded paddy, post-transplant rice, rated 3-4 weeks after treatment, 0-9 rating scale
In short: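 Visual 0–9 injury rating against a control, covering stand, vigor, malformation, size, chlorosis and overall appearance. Treatment was post-transplant onto flooded containers (water 1.5–3 cm deep, silt loam) holding two ten-day-old cv. Tebonnet seedlings, maintained on greenhouse benches.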

CCc1cc(-c2nsc3ccc(-n4c(=O)cc(C(F)(F)F)n(C)c4=O)cc23)c(CC)s1 [Compound 8, 3-[3-(2,5-diethyl-3-thienyl)-1,2-benzisothiazol-5-yl]-1-methyl-6-(trifluoromethyl)uracil] was tested, and the “Postemergence herbicidal rating, ABUTH” value ([1]; rate 0.0320 kg/ha) was 9.0, the “Postemergence herbicidal rating, ABUTH” value ([1]; rate 0.0620 kg/ha) was 9.0 and the “Postemergence herbicidal rating, AMBEL” value ([2]; rate 0.0320 kg/ha) was 3.0. The “Postemergence herbicidal rating, AMBEL” value ([2]; rate 0.0620 kg/ha) was 6.0, the “Postemergence herbicidal rating, CASOB” value ([3]; rate 0.0320 kg/ha) was 1.0 and the “Postemergence herbicidal rating, CASOB” value ([3]; rate 0.0620 kg/ha) was 1.0. The “Postemergence herbicidal rating, CHEAL” value ([4]; rate 0.0320 kg/ha) was 4.0, the “Postemergence herbicidal rating, CHEAL” value ([4]; rate 0.0620 kg/ha) was 7.0 and the “Postemergence herbicidal rating, IPOHE” value ([5]; rate 0.0320 kg/ha) was 9.0. For the same molecule, the “Postemergence herbicidal rating, IPOHE” value ([5]; rate 0.0620 kg/ha) was 7.0, the “Postemergence herbicidal rating, ECHCG” value ([6]; rate 0.0320 kg/ha) was 2.0 and the “Postemergence herbicidal rating, ECHCG” value ([6]; rate 0.0620 kg/ha) was 2.0. The “Postemergence herbicidal rating, ORYSAT” value ([7]; rate 0.0320 kg/ha) was 3.0, the “Postemergence herbicidal rating, ORYSAT” value ([7]; rate 0.0620 kg/ha) was 3.0 and the “Postemergence herbicidal rating, TRZAWR” value ([8]; rate 0.0320 kg/ha) was 4.0. The “Postemergence herbicidal rating, TRZAWR” value ([8]; rate 0.0620 kg/ha) was 5.0, the “Postemergence herbicidal rating, ZEAMX” value ([9]; rate 0.0320 kg/ha) was 5.0 and the “Postemergence herbicidal rating, ZEAMX” value ([9]; rate 0.0620 kg/ha) was 5.0. For the same molecule, the “ABUTH preemergence herbicidal rating” value ([10]; Rate 0.0620 kg/ha) was 0.0, the “ABUTH preemergence herbicidal rating” value ([10]; Rate 0.1250 kg/ha) was 9.0 and the “ABUTH preemergence herbicidal rating” value ([10]; Rate 0.2500 kg/ha) was 9.0. For the same molecule, the “AMBEL preemergence herbicidal rating” value ([11]; Rate 0.0620 kg/ha) was 0.0, the “AMBEL preemergence herbicidal rating” value ([11]; Rate 0.1250 kg/ha) was 2.0 and the “AMBEL preemergence herbicidal rating” value ([11]; Rate 0.2500 kg/ha) was 9.0. The “CASOB preemergence herbicidal rating” value ([12]; Rate 0.0620 kg/ha) was 0.0, the “CASOB preemergence herbicidal rating” value ([12]; Rate 0.1250 kg/ha) was 0.0 and the “CASOB preemergence herbicidal rating” value ([12]; Rate 0.2500 kg/ha) was 0.0. The “CHEAL preemergence herbicidal rating” value ([13]; Rate 0.0620 kg/ha) was 9.0, the “CHEAL preemergence herbicidal rating” value ([13]; Rate 0.1250 kg/ha) was 9.0 and the “CHEAL preemergence herbicidal rating” value ([13]; Rate 0.2500 kg/ha) was 9.0. For the same molecule, the “ORYSAT preemergence herbicidal rating” value ([14]; Rate 0.0620 kg/ha) was 0.0, the “ORYSAT preemergence herbicidal rating” value ([14]; Rate 0.1250 kg/ha) was 0.0 and the “ORYSAT preemergence herbicidal rating” value ([14]; Rate 0.2500 kg/ha) was 0.0. For the same molecule, the “TRZAWR preemergence herbicidal rating” value ([15]; Rate 0.0620 kg/ha) was 0.0, the “TRZAWR preemergence herbicidal rating” value ([15]; Rate 0.1250 kg/ha) was 0.0 and the “TRZAWR preemergence herbicidal rating” value ([15]; Rate 0.2500 kg/ha) was 0.0. For the same molecule, the “herbicidal rating, ECHORC” value ([16]; rate 0.0080 kg/ha) was 2.0, the “herbicidal rating, ECHORC” value ([16]; rate 0.0320 kg/ha) was 9.0 and the “herbicidal rating, ECHORC” value ([16]; rate 0.1250 kg/ha) was 9.0. The “herbicidal rating, CYPSE” value [17] was 4.5, the “herbicidal rating, SAGPY” value ([18]; rate 0.0080 kg/ha) was 0.0 and the “herbicidal rating, SAGPY” value ([18]; rate 0.0320 kg/ha) was 0.0. The “herbicidal rating, SAGPY” value ([18]; rate 0.1250 kg/ha) was 0.0, the “herbicidal rating, ORYSAT (rice tolerance)” value ([19]; rate 0.0080 kg/ha) was 1.0 and the “herbicidal rating, ORYSAT (rice tolerance)” value ([19]; rate 0.0320 kg/ha) was 1.5. For the same molecule, the “herbicidal rating, ORYSAT (rice tolerance)” value ([19]; rate 0.1250 kg/ha) was 2.7.
